Source: patent publication US6458978B1, “Fluorous phosphines and process for their preparation” (Atofina Vlissingen B.V., priority 1998, dated 2002)
Marks after values point to notes of the source that are not given here. One block for each compound: values may come before it.

Legend:
[1] = c-C6F11CF3/toluene at 27° C.; cited from earlier work
[2] = Rhodium catalyzed hydrogenation of 1-octene under single phase fluorous conditions with catalyst recycling; settings: for TOF50% / TON (cumulative) / conv.: p(H2) = 1 bar
Description: (Table 5). In this respect compounds H{1,6} and H{1,8} are true fluorous equivalents of the classical Wilkinson's hydrogenation catalyst (PPh3)3RhCl. The hydrogenation products were readily isolated from the catalyst layer by cooling of the reaction mixture to 0° C. followed by phase separation of the resulting biphasic system. In this way hydrogenation of 1-octene afforded n-octane in >95% yield (GC, GC-MS). Less than 4.3% internal olefins resulting from isomerization were present. In case of H{1,8} it was possible to recycle the fluorous catalyst layer multiple times allowing high turnover numbers and high conversions per cycle (Table 5 and FIG. 5).
20. Rhodium Catalyzed Hydrogenation Reactions
The catalytic experiments were carried out in a 30 mL Schienk flask, under dihydrogen atmosphere (1 bar). The catalyst was either dissolved in a hydrogen saturated toluene or perfluoro solvent and the mixture was stirred with a magnetic stirring bar (900 rpm). The olefinic substrate was added after initial dihydrogen uptake had ceased. The dihydrogen uptake was monitored using two mineral oil filled gas burettes. During the hydrogenation reactions one burette was opened to the reaction vessel while the other was recharged with dihydrogen.
(§1) Only catalysts prepared through method 1 were used. Catalytic reactions were carried out under single phase fluorous conditions in c-CF3C6F11 (2 mL) at 80° C. After >90% conversion (monitored by the H2 uptake) the homogeneous reaction mixture was cooled to 0° C. and the upper organic layer was siphoned of. In between cycles the fluorous layer was kept under H2 atmosphere. By warming up to 80° C. and addition of a fresh portion of 1-octene (12.74 mmol) a new cycle was started. The organic phases resulting from the first cycle were analyzed by GC and ICP-AAS.

[3] = Leaching of rhodium and phosphorus into the organic product phase and partitioning of rhodium species (ICP-AAS); settings: fluorous biphasic product mixture from hydrogenation of 1-octene
Excerpt: Rhodium leaching into the organic phase (as determined by ICP-AAS) was low. On average 0.12% of Rh per cycle was lost corresponding to a rhodium concentration of 3 ppm (by weight) in the product phase. Over 9 cycles only 1% of rhodium was lost despite of the phase separation method used. Leaching was higher for less fluorous pre-catalyst H{1,6}: 0.3% (6 ppm) of rhodium was present in the organic phase after phase separation.
The amount of leached rhodium allows to calculate the average partition coefficients (P) of the rhodium species present during phase separation (Table 6). […] Chem. Soc. 1999, 121, 2696-2704.). […] Chem. Int. Ed. Engl. 1997, 36, 1610-1612).
The retention of free uncoordinated fluorous phosphine can be used for recycling the intact catalyst system.
as §1

[4] = Hydrogenation of 1-octene under single phase conditions in α,α,α-trifluorotoluene; settings: [Rh] 4.0 mM, [1-octene] 1.46 M; T = 80° C., p(H2) = 1 bar, α,α,α-trifluorotoluene
Description: To be able to directly compare the activities of fluorous derivatives H{1,6} and H{1,8} with non-fluorous [P(C6H4-4-SiMe3)3]3RhCl (H{0}) and the conventional Wilkinson catalyst (PPh3)3RhCl, homogeneous hydrogenation of 1-octene were carried out under single phase conditions in the hybrid solvent α,α,α-trifluorotoluene at atmospheric H2 pressures. Highest rates of hydrogen uptake (14.2 mol.L^−1.h^−1) were measured for 1c at relatively high rhodium and olefine concentrations (entry 2, Table 7). Under these conditions a zero-order dependence in [1-octene] was found up to ca 80% conversion resulting in a linear conversion versus time plot. In all other experiments ([Rh]=4.0-8.0 mM, [1-octene]0=1.46 M) rates of hydrogen uptake were lower (<11 mol.L^−1.h^−1) and conversion versus time plots corresponded to a rate law -d[1-octene]/dt=kobs.[1-octene] for >98% conversion allowing to evaluate catalyst activity in terms of the observed first order rate constant kobs. Since for these experiments the rates of dihydrogen uptake were well below the maximum value obtained in entry 2, diffusion limitation of H2 can be excluded. In addition to kobs, turn over frequencies (TOF in mol.mol^−1.h^−1) were derived from the tangent of a 4^thorder polynomal fit to conversion versus time plots at 25% conversion and serve as a measure of catalyst activity independent of any assumed kinetic relationship with substrate.
Catalytic reactions were carried out under single phase conditions in CF3C6H5 at 80° C. under 1 bar of hydrogen pressure. After >90% conversion (monitored by the H2 uptake) volatiles were distilled off and analyzed by GC. Activities (TOF) were determined for 25% conversion.

[5] = hydrogenation of 1-heptene in benzene; cited from earlier work
[6] = cycle 1, c-CF3C6F11, 80° C., [1-octene]/[Rh] = 365
[7] = cycle 2, c-CF3C6F11, 80° C., [1-octene]/[Rh] = 365
[8] = cycle 3, c-CF3C6F11, 80° C., [1-octene]/[Rh] = 365
[9] = cycle 4, c-CF3C6F11, 80° C., [1-octene]/[Rh] = 365
[10] = cycle 5, c-CF3C6F11, 80° C., [1-octene]/[Rh] = 365
[11] = cycle 6, c-CF3C6F11, 80° C., [1-octene]/[Rh] = 365
[12] = cycle 7, c-CF3C6F11, 80° C., [1-octene]/[Rh] = 365
[13] = cycle 8, c-CF3C6F11, 80° C., [1-octene]/[Rh] = 365
[14] = cycle 9, fresh c-CF3C6F11 added as compensation for losses of fluorous solvent, 80° C.
[15] = cycle 1, c-CF3C6F11, 80° C., [1-octene]/[Rh] = 559, [Rh]0 = 0.0060M

Compound: FC(F)(F)C(F)(F)C(F)(F)C(F)(F)C(F)(F)C(F)(F)CCP(CCC(F)(F)C(F)(F)C(F)(F)C(F)(F)C(F)(F)C(F)(F)F)CCC(F)(F)C(F)(F)C(F)(F)C(F)(F)C(F)(F)C(F)(F)F [P [(CH2)2(CF2)nCF3)3]3 (n=5)]
Partition coefficient P [1]: 82

Average partitioning coefficient P of rhodium species ([3]; T = 0° C.): 1052^c
Compound: C[Si](C)(CCC(F)(F)C(F)(F)C(F)(F)C(F)(F)C(F)(F)C(F)(F)C(F)(F)C(F)(F)F)c1ccc(P(c2ccc([Si](C)(C)CCC(F)(F)C(F)(F)C(F)(F)C(F)(F)C(F)(F)C(F)(F)C(F)(F)C(F)(F)F)cc2)c2ccc([Si](C)(C)CCC(F)(F)C(F)(F)C(F)(F)C(F)(F)C(F)(F)C(F)(F)C(F)(F)C(F)(F)F)cc2)cc1.C[Si](C)(CCC(F)(F)C(F)(F)C(F)(F)C(F)(F)C(F)(F)C(F)(F)C(F)(F)C(F)(F)F)c1ccc(P(c2ccc([Si](C)(C)CCC(F)(F)C(F)(F)C(F)(F)C(F)(F)C(F)(F)C(F)(F)C(F)(F)C(F)(F)F)cc2)c2ccc([Si](C)(C)CCC(F)(F)C(F)(F)C(F)(F)C(F)(F)C(F)(F)C(F)(F)C(F)(F)C(F)(F)F)cc2)cc1.C[Si](C)(CCC(F)(F)C(F)(F)C(F)(F)C(F)(F)C(F)(F)C(F)(F)C(F)(F)C(F)(F)F)c1ccc(P(c2ccc([Si](C)(C)CCC(F)(F)C(F)(F)C(F)(F)C(F)(F)C(F)(F)C(F)(F)C(F)(F)C(F)(F)F)cc2)c2ccc([Si](C)(C)CCC(F)(F)C(F)(F)C(F)(F)C(F)(F)C(F)(F)C(F)(F)C(F)(F)C(F)(F)F)cc2)cc1.[Cl][Rh] [H{1,8}, (D{1,8})3RhCl]
Drop of catalyst activity ([2]; 9th cycle, amount of c-C6F11CF3 restored to its initial volume): 19%
TOF50% [2, 6]: 177 h⁻¹
TON (cumulative) [2, 6]: 337
conv. ([2]; cycle 1, c-CF3C6F11, 80° C., [1-octene]/[Rh] = 365, [Rh] = 0.0087M in the initial cycle): 92%
TOF50% [2, 7]: 212 h⁻¹
TON (cumulative) [2, 7]: 688
conv. [2, 7]: 96%
TOF50% [2, 8]: 261 h⁻¹
TON (cumulative) [2, 8]: 1048
conv. [2, 8]: 99%
TOF50% [2, 9]: 277 h⁻¹
TON (cumulative) [2, 9]: 1383
conv. [2, 9]: 92%
TOF50% [2, 10]: 304 h⁻¹
TON (cumulative) [2, 10]: 1747
conv. [2, 10]: 99.8%
TOF50% [2, 11]: 397 h⁻¹
TON (cumulative) [2, 11]: 2100
conv. [2, 11]: 96.8%
TOF50% [2, 12]: 507 h⁻¹
TON (cumulative) [2, 12]: 2444
conv. [2, 12]: 94%
TOF50% [2, 13]: 617 h⁻¹
TON (cumulative) [2, 13]: 2808
conv. [2, 13]: 99.7%
TOF50% [2, 14]: 142 h⁻¹
TON (cumulative) [2, 14]: 3117
conv. [2, 14]: 85%
TOF(25%), turn over frequency at 25% conversion [4]: 870 h⁻¹
TON (mole of olefin/mole of Rh) [4]: 355
conversion [4]: 99%
kobs (first order rate constant) [4]: 3.2(1) h^−1

Average partitioning coefficient P of rhodium species ([3]; T = 0° C.): 293^b
Average partitioning coefficient P of rhodium species ([3]; T = 25° C.): 76^b
Compound: C[Si](C)(CCC(F)(F)C(F)(F)C(F)(F)C(F)(F)C(F)(F)C(F)(F)F)c1ccc([PH](c2ccc([Si](C)(C)CCC(F)(F)C(F)(F)C(F)(F)C(F)(F)C(F)(F)C(F)(F)F)cc2)(c2ccc([Si](C)(C)CCC(F)(F)C(F)(F)C(F)(F)C(F)(F)C(F)(F)C(F)(F)F)cc2)[Rh]([Cl])([PH](c2ccc([Si](C)(C)CCC(F)(F)C(F)(F)C(F)(F)C(F)(F)C(F)(F)C(F)(F)F)cc2)(c2ccc([Si](C)(C)CCC(F)(F)C(F)(F)C(F)(F)C(F)(F)C(F)(F)C(F)(F)F)cc2)c2ccc([Si](C)(C)CCC(F)(F)C(F)(F)C(F)(F)C(F)(F)C(F)(F)C(F)(F)F)cc2)[PH](c2ccc([Si](C)(C)CCC(F)(F)C(F)(F)C(F)(F)C(F)(F)C(F)(F)C(F)(F)F)cc2)(c2ccc([Si](C)(C)CCC(F)(F)C(F)(F)C(F)(F)C(F)(F)C(F)(F)C(F)(F)F)cc2)c2ccc([Si](C)(C)CCC(F)(F)C(F)(F)C(F)(F)C(F)(F)C(F)(F)C(F)(F)F)cc2)cc1 [H{1,6}, (D{1,6})3RhCl]
TOF50% [2, 15]: 298 h⁻¹
TON (cumulative) [2, 15]: 531
conv. ([2]; cycle 1, c-CF3C6F11, 80° C., containing 10 mol % of D{1,6}, [1-octene]/[Rh] = 559, [Rh]0 = 0.0060M): 95%
TOF(25%), turn over frequency at 25% conversion [4]: 1110 h⁻¹
TON (mole of olefin/mole of Rh) [4]: 363
conversion [4]: 99%
kobs (first order rate constant) [4]: 4.2(1) h^−1

Compound: [Cl-].[Rh].c1ccc(P(c2ccccc2)c2ccccc2)cc1.c1ccc(P(c2ccccc2)c2ccccc2)cc1.c1ccc(P(c2ccccc2)c2ccccc2)cc1 [(PPh3)3RhCl]
TOF(25%), turn over frequency at 25% conversion [4]: 960 h⁻¹
TON (mole of olefin/mole of Rh) [4]: 358
conversion [4]: 98%
kobs (first order rate constant) [4]: 4.0(1) h^−1
TOF [5]: 150 to 600 h⁻¹

Compound: FC(F)(F)C(F)(F)C(F)(F)C(F)(F)C(F)(F)C(F)(F)CCP(CCC(F)(F)C(F)(F)C(F)(F)C(F)(F)C(F)(F)C(F)(F)F)CCC(F)(F)C(F)(F)C(F)(F)C(F)(F)C(F)(F)C(F)(F)F [P [(CH2)2(CF2)nCF3)3]3 (n=7)]
Partition coefficient P [1]: 332
